The test has as its target T1, human glucagon receptor (Homo sapiens, UniProt P47871).
T1 construct: expressed in transfected cells; host or cells: BHK cells (parent BHK570, CRE luciferase clone BHK/KZ10-20-48), clone pLJ6'-4-25
The experiment in a line: Glucagon receptor binding, 125I-glucagon displacement SPA on isolated membranes. Particulars: displacement of 125I-glucagon from membranes; read-out: IC50 GlucR. The protocol:
The purpose of this assay was to test the in vitro receptor binding activity (i.e. affinity) of the glucagon derivatives of the invention. The receptor binding activity is a measure of affinity of a derivative for the human glucagon receptor.
The receptor binding of each compound to the human glucagon receptor was measured in a displacement binding assay. In this type of assay a labelled ligand (in this case 125I-glucagon) is bound to the receptor. Each derivative was added in a series of concentrations to isolated membranes containing the human glucagon receptor and displacement of the labelled ligand is monitored. The receptor binding was reported as the concentration at which half of the labelled ligand is displaced from the receptor, the IC50 value.
In order to test the binding of the derivatives to albumin, the assay may be performed in a very low concentration of serum albumin (max. 0.001% final assay concentration) as well as in the presence of a higher concentration of serum albumin (0.2% final assay concentration). An increase of the IC50 value, in the presence of serum albumin indicates an affinity to serum albumin and represents a method to predict a protracted pharmacokinetic profile of the test substance in animal models.
The following chemicals were used in the assay: DMEM w Glutamax (Gibco 61965-026), Pen/strep (Invitrogen 15140-122), G418 (Invitrogen 10131-027), Versene (Gibco 15040), 1 M Hepes (Gibco 15630), PBS (Invitrogen 14190-094), fetal calf serum (Invitrogen 16140-071), MgCl2 (Merck 1.05832.1000), EDTA (Invitrogen 15575-038), CaCl2 (Sigma, C5080), Tween 20 (Amresco 0850C335), ovalbumin (Sigma A5503), SPA particles (wheat germ agglutinin (WGA) SPA beads, Perkin Elmer RPNQ0001), [125I]-glucagon (produced in-house), OptiPlate™-96 (Packard 6005290).
HME buffer consisted of 25 mM HEPES, 2 mM MgCl2 and 1 mM EDTA, and pH was adjusted to 7.4. Assay buffer consisted of 50 mM HEPES supplemented with 5 mM MgCl2, 1 mM CaCl2, 0.02% Tween 20 and 0.1% Ovalbumin, and pH was adjusted to 7.4.
The cells used in this assay (clone BHK hGCGR A3*25) were BHK cells stable transfected with an expression plasmid containing the cDNA encoding the human glucagon receptor.
The cells were grown at 5% CO2 in DMEM, 10% fetal calf serum, 1% Pen/Strep (Penicillin/Streptomycin) and 1.0 mg/ml of the selection marker G418. To make a membrane preparation the cells were grown to approximately 80% confluence. The cells were washed twice in phosphate-buffered saline and harvested. The cells were pelleted using a brief centrifugation and the cell pellet was kept on ice. Lyse the cells by adding approx. 5 ml HME buffer, mix by pipetting and snap freeze in liquid nitrogen. Thaw quickly and add HME buffer to 10 ml. The cell pellet was homogenised with an ULTRA-THURRAX dispersing instrument for 20-30 sec. The homogenate was centrifuged at 20.000×G, 4° C. for 10 min. The pellet was re-suspended (homogenised) in 1-2 ml HME buffer. The protein concentration was determined. The membranes were aliquoted and snap-frozen in liquid nitrogen and stored at minus 80° C.
1. For the receptor binding assay, 50 μl of the assay buffer was added to each well of an assay plate.
2. Test compounds were serially diluted to give the following concentrations: 8×10EE-7 M, 8×10EE-8 M, 8×10EE-9 M, 8×10EE-10 M, 8×10EE-11 M, 8×10EE-12 M and 8×10EE-13 M. Twenty-five μl were added to appropriate wells in the assay plate.
3. Cell membrane aliquots were thawed and diluted to their working concentration. Fifty μl were added to each well in the assay plate.
4. WGA SPA beads were suspended in assay buffer at 20 mg/ml. The suspension was diluted to 10 mg/ml in assay buffer just prior to addition to the assay plate. Fifty μl were added to each well in the assay plate.
5. The incubation was started by adding 25 μl of 480 pM solution of [125I]-glucagon to each well of the assay plate. A 25 μl aliquot was reserved for measuring total counts/well.
6. The assay plate was incubated for 2 h at 25° C.
7. […]

pIC50: −log10 of the molar value. Numbered stars: 1 amine (or outer) side, 2 acyl side, 3 side chain; on linkers, the order of the positions; unused ones are H or OH. Square brackets hold non-standard residues; d marks the D form. Side chains are listed from the residue outwards. Peptide text beside a SMILES is read from it. * marks the point of attachment. C18 diacid = O=C(O)CCCCCCCCCCCCCCCCC(=O)*; γGlu = O=C(O)[C@H](CCC(=O)[*:2])N[*:1]; AEEA = NCCOCCOCC(=O)O; Aib = CC(C)(N)C(=O)O

T1 sequence (P47871 26-477): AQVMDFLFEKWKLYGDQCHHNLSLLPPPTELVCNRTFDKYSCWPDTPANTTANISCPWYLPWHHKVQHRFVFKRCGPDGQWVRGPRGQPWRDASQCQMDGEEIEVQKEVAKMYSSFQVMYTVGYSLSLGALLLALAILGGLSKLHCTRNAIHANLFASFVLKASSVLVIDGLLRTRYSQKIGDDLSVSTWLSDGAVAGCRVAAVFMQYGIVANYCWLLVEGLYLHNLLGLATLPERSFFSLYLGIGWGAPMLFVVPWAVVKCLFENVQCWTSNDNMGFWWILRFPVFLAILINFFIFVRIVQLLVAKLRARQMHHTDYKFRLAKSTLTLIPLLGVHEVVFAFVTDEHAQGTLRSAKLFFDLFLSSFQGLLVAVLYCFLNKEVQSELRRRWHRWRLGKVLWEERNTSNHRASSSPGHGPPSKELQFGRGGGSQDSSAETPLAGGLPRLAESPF

Usually pIC50 stands for the IC50 on a negative log10 scale, so that one unit is a factor of ten. Regarding `CC(C)C[C@H](NC(=O)[C@H](Cc1ccc(O)cc1)NC(=O)[C@H](CCCCN)NC(=O)[C@H](CO)NC(=O)[C@H](CC(C)C)NC(=O)[C@H](CC(=O)O)NC(=O)[C@H](CO)NC(=O)[C@@H](NC(=O)[C@H](Cc1ccccc1)NC(=O)[C@@H](NC(=O)CNC(=O)[C@H](CCC(N)=O)NC(=O)C(C)(C)NC(=O)[C@@H](N)Cc1c[nH]cn1)[C@@H](C)O)[C@@H](C)O)C(=O)N[C@@H](CCC(=O)O)C(=O)N[C@@H](CO)C(=O)N[C@@H](CCCNC(=N)N)C(=O)N[C@@H](CCCNC(=N)N)C(=O)N[C@@H](C)C(=O)N[C@@H](CCCNC(=N)N)C(=O)N[C@@H](CCC(=O)O)C(=O)N[C@@H](Cc1ccccc1)C(=O)N[C@H](C(=O)N[C@@H](CCC(N)=O)C(=O)N[C@@H](Cc1c[nH]c2ccccc12)C(=O)N[C@@H](CC(C)C)C(=O)N[C@@H](CC(C)C)C(=O)N[C@@H](CCCCNC(=O)CC[C@H](NC(=O)COCCOCCNC(=O)COCCOCCNC(=O)CC[C@H](NC(=O)CC[C@H](NC(=O)CCCCCCCCCCCCCCCCC(=O)O)C(=O)O)C(=O)O)C(=O)O)C(=O)N[C@H](C(N)=O)[C@@H](C)O)C(C)C` [Example 20, N^ε29-[(4S)-4-carboxy-4-[[2-[2-[2-[[2-[2-[2-[[(4S)-4-carboxy-4-[[(4S)-4-carboxy-4-(17-carboxyheptadecanoylamino)butanoyl]amino]butanoyl]amino]ethoxy]ethoxy]acetyl]amino]ethoxy]ethoxy]acetyl]amino]butanoyl]-[Aib2,Leu10,Glu15,Arg20,Glu21,Leu27,Lys28]-Glucagon amide] (H-H[Aib]QGTFTSDLSKYLESRRAREFVQWLLK([γGlu-AEEA-AEEA-γGlu-γGlu-C18 diacid])T-NH2; N-terminus assumed), the negative logarithm of the IC50 (pIC50) is 8.17.
To `CC(C)C[C@H](NC(=O)[C@H](Cc1ccc(O)cc1)NC(=O)[C@H](CCCCN)NC(=O)[C@H](CO)NC(=O)[C@H](CC(C)C)NC(=O)[C@H](CC(=O)O)NC(=O)[C@H](CO)NC(=O)[C@@H](NC(=O)[C@H](Cc1ccccc1)NC(=O)[C@@H](NC(=O)CNC(=O)[C@H](CCC(N)=O)NC(=O)C(C)(C)NC(=O)[C@@H](N)Cc1c[nH]cn1)[C@@H](C)O)[C@@H](C)O)C(=O)N[C@@H](CCC(=O)O)C(=O)N[C@@H](CO)C(=O)N[C@@H](CCCNC(=N)N)C(=O)N[C@@H](CCCNC(=N)N)C(=O)N[C@@H](C)C(=O)N[C@@H](CCCNC(=N)N)C(=O)N[C@@H](CCC(=O)O)C(=O)N[C@@H](Cc1ccccc1)C(=O)N[C@H](C(=O)N[C@@H](CCC(N)=O)C(=O)N[C@@H](Cc1c[nH]c2ccccc12)C(=O)N[C@@H](CC(C)C)C(=O)N[C@@H](CC(C)C)C(=O)N[C@@H](CCCCNC(=O)CC[C@H](NC(=O)CC[C@H](NC(=O)COCCOCCNC(=O)COCCOCCNC(=O)CC[C@H](NC(=O)CCCCCCCCCCCCCCCCC(=O)O)C(=O)O)C(=O)O)C(=O)O)C(=O)N[C@H](C(N)=O)[C@@H](C)O)C(C)C` [Example 23, N^ε28-[(4S)-4-carboxy-4-[[(4S)-4-carboxy-4-[[2-[2-[2-[[2-[2-[2-[[(4S)-4-carboxy-4-(17-carboxyheptadecanoylamino)butanoyl]amino]ethoxy]ethoxy]acetyl]amino]ethoxy]ethoxy]acetyl]amino]butanoyl]amino]butanoyl]-[Aib2,Leu10,Glu15,Arg20,Glu21,Leu27,Lys28]-Glucagon amide] (H-H[Aib]QGTFTSDLSKYLESRRAREFVQWLLK([γGlu-γGlu-AEEA-AEEA-γGlu-C18 diacid])T-NH2; N-terminus assumed) belongs 8.19; to `CC(C)C[C@H](NC(=O)[C@H](CC(=O)O)NC(=O)[C@H](CC(C)C)NC(=O)[C@H](Cc1ccc(O)cc1)NC(=O)[C@H](CCCCN)NC(=O)[C@H](CO)NC(=O)[C@H](CC(C)C)NC(=O)[C@H](CC(=O)O)NC(=O)[C@H](CO)NC(=O)[C@@H](NC(=O)[C@H](Cc1ccccc1)NC(=O)[C@@H](NC(=O)CNC(=O)[C@H](CCC(N)=O)NC(=O)C(C)(C)NC(=O)[C@@H](N)Cc1c[nH]cn1)[C@@H](C)O)[C@@H](C)O)C(=O)N[C@@H](CCCCN)C(=O)N[C@@H](CCCNC(=N)N)C(=O)N[C@@H](C)C(=O)N[C@@H](CCCNC(=N)N)C(=O)N[C@@H](CCC(=O)O)C(=O)N[C@@H](Cc1ccccc1)C(=O)N[C@H](C(=O)N[C@@H](CCC(N)=O)C(=O)N[C@@H](Cc1c[nH]c2ccccc12)C(=O)N[C@@H](CC(C)C)C(=O)N[C@@H](CC(C)C)C(=O)N[C@@H](CCCCNC(=O)CC[C@H](NC(=O)CC[C@H](NC(=O)COCCOCCNC(=O)COCCOCCNC(=O)CC[C@H](NC(=O)CCCCCCCCCCCCCCCCC(=O)O)C(=O)O)C(=O)O)C(=O)O)C(=O)N[C@H](C(N)=O)[C@@H](C)O)C(C)C` [Example 26, N^ε28-[(4S)-4-carboxy-4-[[(4S)-4-carboxy-4-[[2-[2-[2-[[2-[2-[2-[[(4S)-4-carboxy-4-(17-carboxyheptadecanoylamino)butanoyl]amino]ethoxy]ethoxy]-acetyl]amino]ethoxy]ethoxy]acetyl]amino]butanoyl]amino]butanoyl]-[Aib2,Leu10,Leu16,Lys17,Arg20,Glu21, Leu27,Lys28]-Glucagon amide] (H-H[Aib]QGTFTSDLSKYLDLKRAREFVQWLLK([γGlu-γGlu-AEEA-AEEA-γGlu-C18 diacid])T-NH2), 8.40; to `CC(C)C[C@H](NC(=O)[C@H](Cc1ccc(O)cc1)NC(=O)[C@H](CCCCN)NC(=O)[C@H](CO)NC(=O)[C@H](CC(C)C)NC(=O)[C@H](CC(=O)O)NC(=O)[C@H](CO)NC(=O)[C@@H](NC(=O)[C@H](Cc1ccccc1)NC(=O)[C@@H](NC(=O)CNC(=O)[C@H](Cc1c[nH]cn1)NC(=O)C(C)(C)NC(=O)[C@@H](N)Cc1c[nH]cn1)[C@@H](C)O)[C@@H](C)O)C(=O)N[C@@H](CCC(=O)O)C(=O)N[C@@H](CO)C(=O)N[C@@H](CCCCN)C(=O)N[C@@H](CCCNC(=N)N)C(=O)N[C@@H](C)C(=O)N[C@@H](CCCNC(=N)N)C(=O)N[C@@H](CCC(=O)O)C(=O)N[C@@H](Cc1ccccc1)C(=O)N[C@H](C(=O)N[C@@H](CCC(N)=O)C(=O)N[C@@H](Cc1c[nH]c2ccccc12)C(=O)N[C@@H](CC(C)C)C(=O)N[C@@H](CC(C)C)C(=O)N[C@@H](CCCCNC(=O)CC[C@H](NC(=O)CC[C@H](NC(=O)COCCOCCNC(=O)COCCOCCNC(=O)CC[C@H](NC(=O)CCCCCCCCCCCCCCCCC(=O)O)C(=O)O)C(=O)O)C(=O)O)C(=O)N[C@H](C(N)=O)[C@@H](C)O)C(C)C` [Example 27, N^ε28-[(4S)-4-carboxy-4-[[(4S)-4-carboxy-4-[[2-[2-[2-[[2-[2-[2-[[(4S)-4-carboxy-4-(17-carboxyheptadecanoylamino)butanoyl]amino]ethoxy]ethoxy]acetyl]amino]ethoxy]ethoxy]acetyl]amino]butanoyl]amino]butanoyl]-[Aib2,His3,Leu10,Glu15,Lys17,Arg20,Glu21,Leu27, Lys28]-Glucagon amide] (H-H[Aib]HGTFTSDLSKYLESKRAREFVQWLLK([γGlu-γGlu-AEEA-AEEA-γGlu-C18 diacid])T-NH2; N-terminus assumed), 9.15.

Source of the values: patent US9474790B2, “Stable, protracted GLP-1/glucagon receptor co-agonists for medical use” (Novo Nordisk A/S, priority 2013, dated 2016).
